{"source": "patent US20260042731A1", "about": "“(2,4-DICHLOROPHENOXY)ACETIC ACID ANALOGS” (CORTEVA AGRISCIENCE LLC, priority 2022, published 2026)", "key": {"[1]": {"system": "weeds ABUTH, AMATA, AMBEL, CHEAL, ERICA", "test": "Postemergence herbicide evaluation, overall average % weed control (ABUTH, AMATA, AMBEL, CHEAL, ERICA)", "type": "in vivo", "details": "post-emergence, read-out: Overall Ave % Weed Control; for pest or weed control at 280 g/ha: 280 g ae/ha; for pest or weed control at 560 g/ha: 560 g ae/ha"}, "[2]": {"system": "Amaranthus rudis (AMATA), tall water hemp", "test": "Postemergence herbicide evaluation, growth of Amaranthus rudis (AMATA)", "type": "in vivo", "details": "Amaranthus tuberculatus, post-emergence, read-out: Ave. AMATA, percent reduction in plant size relative to the untreated control; for pest or weed control at 280 g/ha: 280 g ae/ha; for pest or weed control at 560 g/ha: 560 g ae/ha"}, "[3]": {"test": "Volatility of compounds measured by thermogravimetric analysis (TGA)", "type": "physicochemical"}, "[4]": {"system": "Chenopodium album (CHEAL), common lambsquarters", "test": "Postemergence herbicide evaluation, growth of Chenopodium album (CHEAL)", "type": "in vivo", "details": "Chenopodium album, post-emergence, read-out: Ave. CHEAL, percent reduction in plant size relative to the untreated control; for pest or weed control at 280 g/ha: 280 g ae/ha; for pest or weed control at 560 g/ha: 560 g ae/ha"}, "[5]": {"system": "Abutilon theophrasti (ABUTH), velvetleaf", "test": "Postemergence herbicide evaluation, growth of Abutilon theophrasti (ABUTH)", "type": "in vivo", "details": "Abutilon theophrasti, post-emergence, read-out: AVE. ABUTH, percent reduction in plant size relative to the untreated control; for pest or weed control at 280 g/ha: 280 g ae/ha; for pest or weed control at 560 g/ha: 560 g ae/ha"}, "[6]": {"system": "Ambrosia artemisiifolia (AMBEL), common ragweed", "test": "Postemergence herbicide evaluation, growth of Ambrosia artemisiifolia (AMBEL)", "type": "in vivo", "details": "Ambrosia artemisiifolia, post-emergence, read-out: AVE. AMBEL, percent reduction in plant size relative to the untreated control; for pest or weed control at 280 g/ha: 280 g ae/ha; for pest or weed control at 560 g/ha: 560 g ae/ha"}, "[7]": {"system": "glyphosate resistant Conyza canadensis (L.) (ERICA), horseweed", "test": "Postemergence herbicide evaluation, growth of Conyza canadensis (ERICA)", "type": "in vivo", "details": "Erigeron canadensis, post-emergence, read-out: Ave. ERICA, percent reduction in plant size relative to the untreated control; for pest or weed control at 280 g/ha: 280 g ae/ha; for pest or weed control at 560 g/ha: 560 g ae/ha"}}, "note": "Like-named read-outs stand apart in the source and are kept apart here.", "data": [{"smiles": "Cc1nccc(NC(=O)COc2ccc(Cl)cc2Cl)c1C", "note": "[Compound D26]", "values": [{"measurement": "pest or weed control at 280 g/ha", "setting": "[1]; 168 h, 7 DAA", "value": 64.5, "unit": "%"}, {"measurement": "pest or weed control at 560 g/ha", "setting": "[1]; 168 h, 7 DAA", "value": 73.5, "unit": "%"}, {"measurement": "pest or weed control at 280 g/ha", "setting": "[1]; 336 h, 14 DAA", "value": 77.5, "unit": "%"}, {"measurement": "pest or weed control at 560 g/ha", "setting": "[1]; 336 h, 14 DAA", "value": 83, "unit": "%"}, {"measurement": "pest or weed control at 280 g/ha", "setting": "[1]; 504 h, 21 DAA", "value": 78.5, "unit": "%"}, {"measurement": "pest or weed control at 560 g/ha", "setting": "[1]; 504 h, 21 DAA", "value": 85, "unit": "%"}, {"measurement": "pest or weed control at 280 g/ha", "setting": "[2]; 168 h, 7 DAA", "value": 72.5, "unit": "%"}, {"measurement": "pest or weed control at 560 g/ha", "setting": "[2]; 168 h, 7 DAA", "value": 85, "unit": "%"}, {"measurement": "pest or weed control at 280 g/ha", "setting": "[2]; 336 h, 14 DAA", "value": 88.5, "unit": "%"}, {"measurement": "pest or weed control at 560 g/ha", "setting": "[2]; 336 h, 14 DAA", "value": 87.5, "unit": "%"}, {"measurement": "pest or weed control at 280 g/ha", "setting": "[2]; 504 h, 21 DAA", "value": 75, "unit": "%"}, {"measurement": "pest or weed control at 560 g/ha", "setting": "[2]; 504 h, 21 DAA", "value": 87.5, "unit": "%"}, {"measurement": "TGA Data (rate of weight loss, volatility)", "setting": "[3]", "value": 0.09713, "unit": "µg/min"}, {"measurement": "pest or weed control at 280 g/ha", "setting": "[4]; 168 h, 7 DAA", "value": 75, "unit": "%"}, {"measurement": "pest or weed control at 560 g/ha", "setting": "[4]; 168 h, 7 DAA", "value": 77.5, "unit": "%"}, {"measurement": "pest or weed control at 280 g/ha", "setting": "[4]; 336 h, 14 DAA", "value": 85, "unit": "%"}, {"measurement": "pest or weed control at 560 g/ha", "setting": "[4]; 336 h, 14 DAA", "value": 77.5, "unit": "%"}, {"measurement": "pest or weed control at 280 g/ha", "setting": "[4]; 504 h, 21 DAA", "value": 92.5, "unit": "%"}, {"measurement": "pest or weed control at 560 g/ha", "setting": "[4]; 504 h, 21 DAA", "value": 95, "unit": "%"}, {"measurement": "pest or weed control at 280 g/ha", "setting": "[5]; 168 h, 7 DAA", "value": 42.5, "unit": "%"}, {"measurement": "pest or weed control at 560 g/ha", "setting": "[5]; 168 h, 7 DAA", "value": 55, "unit": "%"}, {"measurement": "pest or weed control at 280 g/ha", "setting": "[5]; 336 h, 14 DAA", "value": 52.5, "unit": "%"}, {"measurement": "pest or weed control at 560 g/ha", "setting": "[5]; 336 h, 14 DAA", "value": 65, "unit": "%"}, {"measurement": "pest or weed control at 280 g/ha", "setting": "[5]; 504 h, 21 DAA", "value": 62.5, "unit": "%"}, {"measurement": "pest or weed control at 560 g/ha", "setting": "[5]; 504 h, 21 DAA", "value": 70, "unit": "%"}, {"measurement": "pest or weed control at 280 g/ha", "setting": "[6]; 168 h, 7 DAA", "value": 75, "unit": "%"}, {"measurement": "pest or weed control at 560 g/ha", "setting": "[6]; 168 h, 7 DAA", "value": 90, "unit": "%"}, {"measurement": "pest or weed control at 280 g/ha", "setting": "[6]; 336 h, 14 DAA", "value": 70, "unit": "%"}, {"measurement": "pest or weed control at 560 g/ha", "setting": "[6]; 336 h, 14 DAA", "value": 85, "unit": "%"}, {"measurement": "pest or weed control at 280 g/ha", "setting": "[6]; 504 h, 21 DAA", "value": 100, "unit": "%"}, {"measurement": "pest or weed control at 560 g/ha", "setting": "[6]; 504 h, 21 DAA", "value": 100, "unit": "%"}, {"measurement": "pest or weed control at 280 g/ha", "setting": "[7]; 168 h, 7 DAA", "value": 57.5, "unit": "%"}, {"measurement": "pest or weed control at 560 g/ha", "setting": "[7]; 168 h, 7 DAA", "value": 60, "unit": "%"}, {"measurement": "pest or weed control at 280 g/ha", "setting": "[7]; 336 h, 14 DAA", "value": 91.5, "unit": "%"}, {"measurement": "pest or weed control at 560 g/ha", "setting": "[7]; 336 h, 14 DAA", "value": 100, "unit": "%"}, {"measurement": "pest or weed control at 280 g/ha", "setting": "[7]; 504 h, 21 DAA", "value": 62.5, "unit": "%"}, {"measurement": "pest or weed control at 560 g/ha", "setting": "[7]; 504 h, 21 DAA", "value": 72.5, "unit": "%"}]}]}
